Holding throughout (experiment): relative viability (nuclei count vs DMSO), 5 days (fraction); higher = more cells survive
Compound in the experiment “AZ505 + Bortezomib”: C1CCC(CC1)N(CCNCCC2=C3C(=C(C=C2)O)NC(=O)CO3)C(=O)CCNCCC4=CC(=C(C=C4)Cl)Cl [AZ505] + CC(C)C[C@H](NC(=O)[C@H](Cc1ccccc1)NC(=O)c1cnccn1)B(O)O [Bortezomib] (partner 0.002 µM)
In short, it runs like this:
(§1)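 Relative viability was taken as the ratio of nuclei in treated wells to nuclei in vehicle wells. Lung cancer cell lines in 1536-well plates received compounds by pin tool one day after seeding, either one drug alone or a fixed anchor-drug dose plus five library-drug doses (not always all listed) in √10 steps. Nuclei were counted on 4× images after 5 days of treatment, and values are medians of duplicate plates.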

Compound in the experiment “AZ505 + Navitoclax”: C1CCC(CC1)N(CCNCCC2=C3C(=C(C=C2)O)NC(=O)CO3)C(=O)CCNCCC4=CC(=C(C=C4)Cl)Cl [AZ505] + CC1(C)CCC(c2ccc(Cl)cc2)=C(CN2CCN(c3ccc(C(=O)NS(=O)(=O)c4ccc(N[C@H](CCN5CCOCC5)CSc5ccccc5)c(S(=O)(=O)C(F)(F)F)c4)cc3)CC2)C1 [Navitoclax] (partner 0.5 µM)
In short, it runs like this: as §1

Compound in the experiment “AZ505 + Pemetrexed”: C1CCC(CC1)N(CCNCCC2=C3C(=C(C=C2)O)NC(=O)CO3)C(=O)CCNCCC4=CC(=C(C=C4)Cl)Cl [AZ505] + Nc1nc2[nH]cc(CCc3ccc(C(=O)N[C@@H](CCC(=O)O)C(=O)O)cc3)c2c(=O)[nH]1 [Pemetrexed] (partner 0.2 µM)
In short, it runs like this:
as §1

Compound in the experiment “Dactolisib + Phenformin”: Cn1c(=O)n(-c2ccc(C(C)(C)C#N)cc2)c2c3cc(-c4cnc5ccccc5c4)ccc3ncc21 [Dactolisib] + N=C(N)NC(=N)NCCc1ccccc1 [Phenformin] (partner 250 µM)
In short, it runs like this: as §1

In the supplement of paper PMC10307832 one finds relative viability data, which are given here for 7 cell lines.

As to NCI-H2405, the relative viability with AZ505 + Bortezomib (first compound 0.08 µM) came to 0.733; with AZ505 + Bortezomib (first compound 0.253 µM) it was 0.802; with AZ505 + Bortezomib (first compound 0.8 µM), 0.81; with AZ505 + Bortezomib (first compound 2.53 µM) it was 0.859; with AZ505 + Bortezomib (first compound 8 µM), 0.925; with AZ505 + Navitoclax (first compound 0.08 µM), 0.449. Moreover, the relative viability is 0.483 with AZ505 + Navitoclax (first compound 0.253 µM); 0.621 with AZ505 + Navitoclax (first compound 0.8 µM); 0.524 with AZ505 + Navitoclax (first compound 2.53 µM); 0.696 with AZ505 + Navitoclax (first compound 8 µM); 0.715 with AZ505 + Pemetrexed (first compound 0.08 µM); 0.841 in the experiment with AZ505 + Pemetrexed (first compound 0.8 µM). Moreover, the relative viability with AZ505 + Pemetrexed (first compound 2.53 µM) was 0.882; with AZ505 + Pemetrexed (first compound 8 µM) it was 0.97; with Dactolisib + Phenformin (first compound 0.002 µM) it was 0.403; with Dactolisib + Phenformin (first compound 0.006325 µM), 0.379; with Dactolisib + Phenformin (first compound 0.02 µM), 0.374; with Dactolisib + Phenformin (first compound 0.06325 µM) it was 0.269. The relative viability with Dactolisib + Phenformin (first compound 0.2 µM) stood at 0.256.

NCI-H3122: the relative viability with AZ505 + Bortezomib (first compound 0.08 µM) came out at 1.01; in the experiment with AZ505 + Bortezomib (first compound 0.253 µM), 1.02; in the experiment with AZ505 + Bortezomib (first compound 0.8 µM), 1.07; in the experiment with AZ505 + Bortezomib (first compound 2.53 µM), 1.04; with AZ505 + Bortezomib (first compound 8 µM) it was 1.03; with AZ505 + Navitoclax (first compound 0.08 µM) it was 1. The relative viability was 1.02 with AZ505 + Navitoclax (first compound 0.253 µM); 1.03 with AZ505 + Navitoclax (first compound 0.8 µM); 1.02 with AZ505 + Navitoclax (first compound 2.53 µM); 1 with AZ505 + Navitoclax (first compound 8 µM); 0.196 with AZ505 + Pemetrexed (first compound 0.08 µM); 0.197 in the experiment with AZ505 + Pemetrexed (first compound 0.253 µM). The relative viability in the experiment with AZ505 + Pemetrexed (first compound 0.8 µM) turned out to be 0.196; with AZ505 + Pemetrexed (first compound 2.53 µM), 0.201; with AZ505 + Pemetrexed (first compound 8 µM), 0.199; in the experiment with Dactolisib + Phenformin (first compound 0.002 µM), 0.381; with Dactolisib + Phenformin (first compound 0.006325 µM) it was 0.385; with Dactolisib + Phenformin (first compound 0.02 µM), 0.416. The relative viability with Dactolisib + Phenformin (first compound 0.06325 µM) was 0.378; with Dactolisib + Phenformin (first compound 0.2 µM), 0.317.

In the case of PC-3 [JPC-3], the relative viability with AZ505 + Bortezomib (first compound 0.08 µM) turned out to be 0.735; in the experiment with AZ505 + Bortezomib (first compound 0.253 µM), 0.768; with AZ505 + Bortezomib (first compound 0.8 µM) it was 0.684; with AZ505 + Bortezomib (first compound 2.53 µM) it was 0.775; with AZ505 + Bortezomib (first compound 8 µM), 0.771; with AZ505 + Navitoclax (first compound 0.08 µM), 0.76. The relative viability worked out at 0.817 with AZ505 + Navitoclax (first compound 0.253 µM); 0.768 in the experiment with AZ505 + Navitoclax (first compound 0.8 µM); 0.84 with AZ505 + Navitoclax (first compound 2.53 µM); 0.802 in the experiment with AZ505 + Navitoclax (first compound 8 µM); 0.97 in the experiment with AZ505 + Pemetrexed (first compound 0.08 µM); 1.18 in the experiment with AZ505 + Pemetrexed (first compound 0.8 µM). Further, the relative viability with AZ505 + Pemetrexed (first compound 2.53 µM) came out at 1.09; in the experiment with AZ505 + Pemetrexed (first compound 8 µM), 1.27; in the experiment with Dactolisib + Phenformin (first compound 0.002 µM), 0.494; with Dactolisib + Phenformin (first compound 0.006325 µM) it was 0.485; with Dactolisib + Phenformin (first compound 0.02 µM) it was 0.475; in the experiment with Dactolisib + Phenformin (first compound 0.06325 µM), 0.47. The relative viability with Dactolisib + Phenformin (first compound 0.2 µM) was 0.469.

Consider PC-14, for which the relative viability amounted to 0.776 in the experiment with AZ505 + Bortezomib (first compound 0.08 µM); 0.877 with AZ505 + Bortezomib (first compound 0.253 µM); 0.882 in the experiment with AZ505 + Bortezomib (first compound 0.8 µM); 0.768 with AZ505 + Bortezomib (first compound 2.53 µM); 0.841 with AZ505 + Bortezomib (first compound 8 µM); 0.999 with AZ505 + Navitoclax (first compound 0.08 µM). The relative viability in the experiment with AZ505 + Navitoclax (first compound 0.253 µM) is 1.07; with AZ505 + Navitoclax (first compound 0.8 µM), 0.974; with AZ505 + Navitoclax (first compound 2.53 µM), 0.95; in the experiment with AZ505 + Navitoclax (first compound 8 µM) it was 0.997; with AZ505 + Pemetrexed (first compound 0.08 µM) it was 0.122; in the experiment with AZ505 + Pemetrexed (first compound 0.253 µM), 0.138. In addition, the relative viability with AZ505 + Pemetrexed (first compound 0.8 µM) was 0.127; in the experiment with AZ505 + Pemetrexed (first compound 2.53 µM) it was 0.146; with AZ505 + Pemetrexed (first compound 8 µM) it was 0.166; in the experiment with Dactolisib + Phenformin (first compound 0.002 µM), 0.642; in the experiment with Dactolisib + Phenformin (first compound 0.006325 µM) it was 0.523; with Dactolisib + Phenformin (first compound 0.02 µM), 0.45. For the same cell line, the relative viability with Dactolisib + Phenformin (first compound 0.06325 µM) is 0.29; in the experiment with Dactolisib + Phenformin (first compound 0.2 µM), 0.144.

With RERF-LC-KJ, the relative viability with AZ505 + Bortezomib (first compound 0.08 µM) was determined as 1.02; with AZ505 + Bortezomib (first compound 0.253 µM), 1.02; with AZ505 + Bortezomib (first compound 0.8 µM) it was 1.18; in the experiment with AZ505 + Bortezomib (first compound 2.53 µM), 1.09; with AZ505 + Bortezomib (first compound 8 µM), 1.12; with AZ505 + Navitoclax (first compound 0.08 µM), 1.3. Further, the relative viability turned out to be 0.901 in the experiment with AZ505 + Navitoclax (first compound 0.253 µM); 0.916 with AZ505 + Navitoclax (first compound 0.8 µM); 0.869 in the experiment with AZ505 + Navitoclax (first compound 2.53 µM); 0.753 with AZ505 + Navitoclax (first compound 8 µM); 0.448 with AZ505 + Pemetrexed (first compound 0.08 µM); 0.454 in the experiment with AZ505 + Pemetrexed (first compound 0.253 µM). Besides, the relative viability turned out to be 0.505 with AZ505 + Pemetrexed (first compound 0.8 µM); 0.449 with AZ505 + Pemetrexed (first compound 2.53 µM); 0.434 with AZ505 + Pemetrexed (first compound 8 µM); 0.42 with Dactolisib + Phenformin (first compound 0.002 µM); 0.415 with Dactolisib + Phenformin (first compound 0.006325 µM); 0.428 in the experiment with Dactolisib + Phenformin (first compound 0.02 µM). For the same cell line, the relative viability with Dactolisib + Phenformin (first compound 0.06325 µM) worked out at 0.298; with Dactolisib + Phenformin (first compound 0.2 µM) it was 0.302.

As to SK-LU-1, the relative viability with AZ505 + Bortezomib (first compound 0.08 µM) was 0.703; in the experiment with AZ505 + Bortezomib (first compound 0.253 µM), 0.561; in the experiment with AZ505 + Bortezomib (first compound 0.8 µM), 0.778; with AZ505 + Bortezomib (first compound 2.53 µM) it was 0.923; in the experiment with AZ505 + Bortezomib (first compound 8 µM), 0.761; with AZ505 + Navitoclax (first compound 0.08 µM), 0.716. Also, the relative viability in the experiment with AZ505 + Navitoclax (first compound 0.253 µM) worked out at 0.406; with AZ505 + Navitoclax (first compound 0.8 µM), 0.451; with AZ505 + Navitoclax (first compound 2.53 µM) it was 0.482; in the experiment with AZ505 + Navitoclax (first compound 8 µM), 0.351; in the experiment with AZ505 + Pemetrexed (first compound 0.08 µM) it was 0.671; with AZ505 + Pemetrexed (first compound 0.253 µM), 0.72. The relative viability came out at 0.684 with AZ505 + Pemetrexed (first compound 0.8 µM); 0.799 in the experiment with AZ505 + Pemetrexed (first compound 2.53 µM); 0.757 with AZ505 + Pemetrexed (first compound 8 µM); 0.273 in the experiment with Dactolisib + Phenformin (first compound 0.002 µM); 0.491 with Dactolisib + Phenformin (first compound 0.006325 µM); 0.414 in the experiment with Dactolisib + Phenformin (first compound 0.02 µM). The results for the relative viability with Dactolisib + Phenformin (first compound 0.06325 µM) and with Dactolisib + Phenformin (first compound 0.2 µM) were 0.259 and 0.185, respectively.

Turning to SW 1573, the relative viability with AZ505 + Bortezomib (first compound 0.08 µM) turned out to be 0.907; in the experiment with AZ505 + Bortezomib (first compound 0.253 µM) it was 1.08; with AZ505 + Bortezomib (first compound 0.8 µM) it was 0.939; with AZ505 + Bortezomib (first compound 2.53 µM), 1.12; in the experiment with AZ505 + Bortezomib (first compound 8 µM), 1.08; in the experiment with AZ505 + Navitoclax (first compound 0.08 µM), 0.893. Also, the relative viability with AZ505 + Navitoclax (first compound 0.253 µM) was 1.03; with AZ505 + Navitoclax (first compound 0.8 µM), 1.05; in the experiment with AZ505 + Navitoclax (first compound 2.53 µM), 1.09; in the experiment with AZ505 + Navitoclax (first compound 8 µM), 0.91; with AZ505 + Pemetrexed (first compound 0.08 µM), 0.761; with AZ505 + Pemetrexed (first compound 0.253 µM), 0.851. For the same cell line, the relative viability with AZ505 + Pemetrexed (first compound 0.8 µM) came to 0.928; in the experiment with AZ505 + Pemetrexed (first compound 2.53 µM), 0.869; in the experiment with AZ505 + Pemetrexed (first compound 8 µM), 0.876; with Dactolisib + Phenformin (first compound 0.002 µM), 0.382; with Dactolisib + Phenformin (first compound 0.006325 µM), 0.238; with Dactolisib + Phenformin (first compound 0.02 µM), 0.31. The relative viability in the experiment with Dactolisib + Phenformin (first compound 0.06325 µM) was determined as 0.139; with Dactolisib + Phenformin (first compound 0.2 µM) it was 0.175.
